Data on eight compounds can be found in patent US20190169134A1, “NOVEL CLASS OF QUINOLONE HETEROCYCLIC AROMATIC MOLECULES FOR CANCER TREATMENT” (RenoTarget Therapeutics, Inc., priority 2016, published 2019).

In one assay the test system is HCC827P. Kind of assay: Cell growth inhibition by SRB method. Conditions: for IC50: 72 hrs exposure, SRB. Type of assay: cell-based, human. The source says:
(§1) Six human cancer cell lines have been used to evaluate effects of the compounds on proliferation of cancer cells. These cell lines include HCC827-P (or HCC827 parent cells), human non-small lung cancer cells, Parent NSCLC HCC827 cell line (which harbors EGFR gene amplification, Exon 19 (E19) deletion, and Exon 21 mutation (Wang, Ramakrishnan et al. 2010), and is an EGFRi sensitive cell line (Kim, Kim et al. 2010)); HCC827-TR16 (Tarceva-resistant HCC727 cell line), HCC827-OR16 (AZD9291-resistant HCC727 cell line), LNCaP (human prostate cancer cells—a hormonal-therapy sensitive cell line (Wang, Liu et al. 1997)); 22RV1 (human prostate cancer cells—a hormonal-therapy resistant cell line (Sramkoski, Pretlow et al. 1999)); and ACHN (human renal adenocarcinoma cells (Park, Jung et al. 2003)). LNCaP cells and 22RV1 cells were purchased from the American Type Culture Collection (Rockville, Md.) and others were gifts of friends.
(§2) To evaluate activities of new compounds on growth of EGFR-inhibitor-resistant cells, two EGFRi-resistant cell lines, i.e., HCC827-TR16 and HCC827-OR16 were established using a method described by Eberlein et al. (Eberlein, Stetson et al. 2015). […] Resistant cells were collected and stabilized after 5 weeks (cycle 5). […] The resistant cells were sorted using 96-well dishes by culturing cells with density of 0.1, 1, 10, and 100 cells per well.
(§3) All cell lines were maintained in RPMI-1640 (GIBCO, Gaithersburg, Md.) with 10% heat-inactivated bovine serum (FBS) (Wang, Ossowski et al. 2004).
(§4) Sulforhodamine B (SRB) was used to estimate cell growth as described previously (Skehan, Storeng et al. 1990). Briefly, cells grown exponentially were aliquoted into 96-well plates at a density of 2,500 to 5,000 cells/200 μl per well in RPMI 1640 medium containing 10% FBS. After twenty-four hours, the cells were exposed to indicated concentrations of tested compounds for 72 hrs or otherwise as indicated. The cells were then fixed with 10% trichloride acetic acid for 2 h at 4° C. The 10% trichloride acetic acid was removed, and the dishes were washed 5 times with tape water, and air-dried. The fixed and dried cells were then stained with 0.4% SRB in 1% acetic acid for 25 min, and the dishes were washed 5 times with 1% acetic acid and air-dried overnight. 200 μl of 10 mM of Tris buffer (pH 10.0) were added, and the dishes were rotated to completely dissolve the color. Absorbance at 570 nm, with a reference wavelength 690 nm, was measured on a 96-well microplate reader (SPECTRO Star^Nano, BMG Labtech). Mean, standard deviation (SD) and the percent of growth inhibition at each concentration point of the treatment were calculated. The percent of growth inhibition as defined as (1−T/C)×100 where T is the mean of the absorbance at 570 nm from the treatment, and C from control (drug vehicle only). IC50 was calculated using Sigma-plot software by regression of growth-concentration curve from each drug treatment.

The next assay deals with 22RV1. Kind of assay: Cell growth inhibition by SRB method. The assay is classed as cell-based, human. Conditions: for growth inhibition of 22RV1 cells (in words): EGFR negative cell line, 72 hrs, FIG. 2 and 3; for IC50: 72 hrs exposure, SRB.
Description: as §1, §3, §4
(In SRB staining, fixed cells bind dye roughly in proportion to their protein.)

For assay [1], the system named is HCC827 P and HCC827 TR cells. Kind of assay: Reno647/Carboplatin combination, median effects (SRB, CalcuSyn). Type of assay: cell-based, human. As to the method: As described in Example 2.1. Two cell lines, HCC827-P and HCC827-TR (Tarceva-resistant HCC727 cells-an EGFRi resistant cell line with MET amplification) (Wang, Pursell et al. 2013) were used in the combination study. Exponentially growing HC[…] and HCC827-TR cells were seeded into 96-wells dishes at density of 3,000 cells per well. Twenty-four hours later, the cells were exposed concurrently to serial dilution of Reno647 or Carboplatin or Camptothecin alone or in combination at a ratio of 1:50 with Carboplatin or at ratio 1:1 with Camptothecin for 3 days. Reno647 were concurrently and sequentially with paclitaxel (Taxol) at ratio of 200:1 for 6 days. For sequential exposure, the cells were treated with Reno647 for 3 days, after removal of the drug containing medium, the cells were treated with Taxol for additional 3 days, or the cells were treated by Taxol first followed by the treatment with Reno 647. After incubation for 6 days, the cell growth was measured by SRB as described previously in Example 2.1 section, and the percentages of inhibition (1-T/C) % were calculated, and data were analyzed by a PC program, CalcuSyn, Biosoft (edited by T.-C. Chou, Memorial Sloan-Kettering Cancer Center, New York, and M. P. Hayball, at Cambridge, UK, 1996). The computer-calculated combination index (CI) was used to judge the outcomes of a combination: […] It has long been accepted that chemotherapy provided some benefit for patients with non-small-cell lung cancer (NSCLC) in terms of quality of life and symptomatology as well as modest improvements in survival. […] Cell growth was determined by SRB as described above.

The test system of a further assay is HCC827OR16. Kind of assay: Cell growth inhibition by SRB method. The assay is classed as cell-based, human. The conditions noted are these: AZD9291-resistant line, 72 hrs exposure.
Description: as §1, §2, §3, §4

The test system of a further assay is HCC827TR16. Kind of assay: Cell growth inhibition by SRB method. Conditions: Homo sapiens, Tarceva-resistant line, 72 hrs exposure. The assay is classed as cell-based.
Description: as §1, §2, §3, §4

The subject of another assay is LNCaP. Briefly: Cell growth inhibition by SRB method. Conditions: for IC50: Homo sapiens, LNCaP, 72 hrs exposure, SRB. Type of assay: cell-based, human.
Description: as §1, §3, §4

In a further assay the test system is tested cancer cell lines. Kind of assay: Cell growth inhibition by SRB method, tested cancer cell lines overall. The assay is classed as cell-based, human. Conditions: data not provided.
Description: as §1, §3, §4

For a further assay, the system named is ACHN. Briefly: Cell growth inhibition by SRB method. The assay is classed as cell-based, human. Conditions: 72 hrs exposure.
Description: as §1, §3, §4

Turning to `O=C(c1cc(Cc2n[nH]c(=O)c3ccccc23)ccc1F)N1CCN(C(=O)C2CC2)CC1` [AZD2281, reference compound], the “growth inhibition of HCC827P cells (in words)” value in the assay with HCC827P (EGFR positive cell line, 72 hrs, FIG. 3) is reported as “no activity”. In the assay with 22RV1, the “growth inhibition of 22RV1 cells (in words)” value is given as “significantly inhibited”.

In the case of `N.N.O=C([O-])C1(C(=O)[O-])CCC1.[Pt+2]` [Carboplatin, reference compound], the “dose reduction in combination” value in assay [1] (Reno647:Carboplatin 1:50) is 2 fold. The “median effects, two drugs combined” value in assay [1] (Reno647:Carboplatin 1:50, concurrent, cell line not stated) is 3.38 µM. For the same compound, the “median effects, drug alone” value in assay [1] (single agent, cell line not stated) is 8.39 µM.

As a reminder, the IC50 is the concentration that gives 50% inhibition. The low end stands for greater potency, the high end for weaker potency. As for `C#Cc1cccc(Nc2ncnc3cc(OCCOC)c(NC(=O)c4ccc(Cl)c([N+](=O)[O-])c4)cc23)c1` [Reno648, 4-Chloro-N-[4-(3-ethynyl-phenylamino)-7-(2-methoxy-ethoxy)-quinazolin-6-yl]-3-nitro-benzamide], the half-maximal inhibitory concentration (IC50) in the assay with HCC827OR16 (Homo sapiens) was over 5000 nM; in the assay on HCC827P (Homo sapiens) it was 150 nM; with HCC827TR16 it was over 5000 nM; with 22RV1 (Homo sapiens, 22Rv1), over 5000 nM; in the assay on LNCaP, over 5000 nM. For the same compound, the “activities against all tested cancer cells lines compared with NK-2206 and MLN8237” value (from here on “activities … compared with NK-2206 and MLN8237”) in the assay on tested cancer cell lines is reported as “better activities”.

Regarding `C#Cc1cccc(Nc2ncnc3cc(OCCOC)c(OCCOC)cc23)c1` [Tarceva, reference compound], the “IC50 HCC827OR16” value with HCC827OR16 is reported as “almost unmeasurable”. Further, the IC50 was over 5000 nM with HCC827OR16 (Homo sapiens); under 200 nM in the assay on HCC827P (Homo sapiens); over 5000 nM with HCC827TR16; over 5000 nM in the assay on 22RV1 (Homo sapiens, 22Rv1); 625 nM in the assay with ACHN (Homo sapiens, ACHN); over 5000 nM in the assay on LNCaP. The “growth inhibition of 22RV1 cells (in words)” value in the assay on 22RV1 is “relatively weak response”. Moreover, the “growth inhibition of LNCaP cells (in words)” value with LNCaP (72 hrs, FIG. 2) was “relatively weak response”.

Turning to `C#Cc1cccc(Nc2ncnc3cc(OCCOC)c(NC(=O)c4ccc(Br)c([N+](=O)[O-])c4)cc23)c1` [Reno636, 4-Bromo-N-[4-(3-ethynyl-phenylamino)-7-(2-methoxy-ethoxy)-quinazolin-6-yl]-3-nitro-benzamide], the IC50 in the assay with HCC827OR16 (Homo sapiens) is over 5000 nM; with HCC827P (Homo sapiens), 200 nM; in the assay on HCC827TR16, over 5000 nM; with 22RV1 (Homo sapiens, 22Rv1), over 5000 nM; in the assay with ACHN (Homo sapiens, ACHN) it was over 5000 nM. Moreover, in the assay with tested cancer cell lines, the “activities … compared with NK-2206 and MLN8237” value is given as “better activities”.

As for `C=CC(=O)Nc1cc(Nc2nccc(-c3cn(C)c4ccccc34)n2)c(OC)cc1N(C)CCN(C)C` [AZD9291, reference compound], the IC50 with HCC827OR16 (Homo sapiens) was 2000 nM; in the assay on HCC827P (Homo sapiens), under 200 nM; in the assay with HCC827TR16, 1200 nM; with 22RV1 (Homo sapiens, 22Rv1), 650 nM; with LNCaP, 2000 nM.

As for “(3-Ethynyl-phenyl)-[6-(2-methoxy-ethoxy)-7-nitro-naphthalen-1-yl]-amine [Reno635]”, the concentration for half-maximal inhibition (IC50) in the assay on HCC827OR16 was over 5000 nM; in the assay on HCC827P, over 5000 nM; with 22RV1 it was 5000 nM; in the assay with ACHN, 3750 nM.

For the compound `C#Cc1cccc(Nc2ncnc3cc(OCCOC)c(NC(=O)c4ccc(I)c([N+](=O)[O-])c4)cc23)c1` [Reno649, 4-Iodo-N-[4-(3-ethynyl-phenylamino)-7-(2-methoxy-ethoxy)-quinazolin-6-yl]-3-nitro-benzamide], the concentration for half-maximal inhibition (IC50) in the assay on HCC827OR16 (Homo sapiens) was 1800 nM; in the assay on HCC827P (Homo sapiens), 200 nM; with HCC827TR16, over 5000 nM; in the assay with 22RV1 (Homo sapiens, 22Rv1), 2300 nM; in the assay on LNCaP, over 5000 nM. Further, the “activities … compared with NK-2206 and MLN8237” value in the assay with tested cancer cell lines is “better activities”.
